Test results: patent publication US9499492B2, “4-(ortho)-fluorophenyl-5-fluoropyrimidin-2-yl amines containing a sulfoximine group” (BAYER PHARMA AKTIENGESELLSCHAFT, priority 2012, dated 2016)
Structures can show the parent of a compound that is named as a salt. Where two headings read alike, the source gives them in different places.

Columns and labels:
[1] = target: T1, CDK9/CycT1 (Homo sapiens (Human), UniProt P50750); test: CDK9/CycT1 high ATP kinase assay (Method 1b); type: biochemical; conditions: 2 mM ATP
T1 sequence (P50750 whole entry): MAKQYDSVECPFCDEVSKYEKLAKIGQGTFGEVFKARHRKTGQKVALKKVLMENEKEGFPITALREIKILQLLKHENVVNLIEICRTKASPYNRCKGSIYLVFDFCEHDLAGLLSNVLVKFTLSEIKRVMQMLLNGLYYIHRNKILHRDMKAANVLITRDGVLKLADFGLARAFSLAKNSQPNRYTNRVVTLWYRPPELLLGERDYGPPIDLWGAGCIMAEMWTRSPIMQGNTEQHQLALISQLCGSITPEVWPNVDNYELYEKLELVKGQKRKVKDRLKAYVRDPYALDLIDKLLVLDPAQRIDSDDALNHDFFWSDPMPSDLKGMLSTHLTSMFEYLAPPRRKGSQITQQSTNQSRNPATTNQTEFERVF
T1 sequence (O60563 whole entry partner): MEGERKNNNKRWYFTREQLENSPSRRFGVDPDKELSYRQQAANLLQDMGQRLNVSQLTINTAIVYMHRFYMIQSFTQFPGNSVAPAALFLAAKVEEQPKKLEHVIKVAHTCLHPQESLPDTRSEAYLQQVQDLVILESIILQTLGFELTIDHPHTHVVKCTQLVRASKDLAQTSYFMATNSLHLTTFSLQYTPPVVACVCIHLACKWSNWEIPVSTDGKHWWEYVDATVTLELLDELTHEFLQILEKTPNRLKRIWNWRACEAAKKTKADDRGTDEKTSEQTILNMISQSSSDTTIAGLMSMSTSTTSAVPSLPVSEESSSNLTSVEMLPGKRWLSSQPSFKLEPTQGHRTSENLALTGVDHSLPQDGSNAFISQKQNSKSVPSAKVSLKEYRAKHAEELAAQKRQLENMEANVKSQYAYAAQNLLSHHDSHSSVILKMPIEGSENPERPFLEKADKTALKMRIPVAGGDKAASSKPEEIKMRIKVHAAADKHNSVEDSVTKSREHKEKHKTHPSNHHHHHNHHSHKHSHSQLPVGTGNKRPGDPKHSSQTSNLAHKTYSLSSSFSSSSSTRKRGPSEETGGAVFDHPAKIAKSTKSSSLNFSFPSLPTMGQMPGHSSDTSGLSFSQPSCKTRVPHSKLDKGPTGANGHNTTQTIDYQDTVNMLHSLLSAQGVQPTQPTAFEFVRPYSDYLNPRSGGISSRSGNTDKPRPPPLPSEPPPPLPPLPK
Protocol: 1b. CDK9/CycT1 High ATP Kinase Assay
CDK9/CycT1-inhibitory activity of compounds of the present invention at a high ATP concentration after preincubation of enzyme and test compounds was quantified employing the CDK9/CycT1 TR-FRET assay as described in the following paragraphs.
(§1) Recombinant full-length His-tagged human CDK9 and CycT1, expressed in insect cells and purified by Ni-NTA affinity chromatography, were purchase from Invitrogen (Cat. No PV4131). As substrate for the kinase reaction biotinylated peptide biotin-Ttds-[…] (C-terminus in amid form) was used which can be purchased e.g. form the company JERINI peptide technologies (Berlin, Germany).
(§2) For the assay 50 nl of a 100 fold concentrated solution of the test compound in DMSO was pipetted into a black low volume 384 well microtiter plate (Greiner Bio-One, Frickenhausen, Germany), 2 μl of a solution of CDK9/CycT1 in aqueous assay buffer [50 mM Tris/HCl pH 8.0, 10 mM MgCl2, 1.0 mM dithiothreitol, 0.1 mM sodium ortho-vanadate, 0.01% (v/v) Nonidet-P40 (Sigma)] were added and the mixture was incubated for 15 min at 22° C. to allow pre-binding of the test compounds to the enzyme before the start of the kinase reaction. […] The concentration of CDK9/CycT1 was adjusted depending of the activity of the enzyme lot and was chosen appropriate to have the assay in the linear range, typical concentrations were in the range of 0.5 μg/ml.
(§3) The resulting mixture was incubated 1 h at 22° C. to allow the formation of complex between the phosphorylated biotinylated peptide and the detection reagents. Subsequently the amount of phosphorylated substrate was evaluated by measurement of the resonance energy transfer from the Eu-chelate to the streptavidine-XL. Therefore, the fluorescence emissions at 620 nm and 665 nm after excitation at 350 nm was measured in a HTRF reader, e.g. a Rubystar (BMG Labtechnologies, Offenburg, Germany) or a Viewlux (Perkin-Elmer). The ratio of the emissions at 665 nm and at 622 nm was taken as the measure for the amount of phosphorylated substrate.

[2] = target: CDK2/CycE (Homo sapiens (Human), UniProt P24941); test: CDK2/CycE kinase assay (Method 2); type: biochemical; conditions: 10 μM ATP
Source text: 2. CDK2/CycE Kinase Assay:
CDK2/CycE-inhibitory activity of compounds of the present invention was quantified employing the CDK2/CycE TR-FRET assay as described in the following paragraphs:
Recombinant fusion proteins of GST and human CDK2 and of GST and human CycE, expressed in insect cells (Sf9) and purified by Glutathion-Sepharose affinity chromatography, were purchased from ProQinase GmbH (Freiburg, Germany). As substrate for the kinase reaction biotinylated peptide biotin-Ttds-[…] (C-terminus in amid form) was used which can be purchased e.g. form the company JERINI Peptide Technologies (Berlin, Germany).
as §2, with “CDK2/CycE” for “CDK9/CycT1”, “130 ng/ml.” for “0.5 μg/ml.”
as §3, with “TR-FRET” for “HTRF”

[3] = target: T1, CDK9/CycT1; test: CDK9/CycT1 kinase assay (Method 1a); type: biochemical; conditions: for IC50: 10 μM ATP; for Selectivity CDK9/CDK2: derived from Methods 1a. and 2.
Source text: 1a. CDK9/CycT1 Kinase Assay:
CDK9/CycT1-inhibitory activity of compounds of the present invention was quantified employing the CDK9/CycT1 TR-FRET assay as described in the following paragraphs:
as §1, with “were purchased” for “were purchase”, “JERINI Peptide Technologies” for “JERINI peptide technologies”
as §2, with “1” for “0.5”
as §3

[4] = system: A2780, human ovarian carcinoma cells; test: Proliferation assay, A2780 (Method 3); type: cell-based; conditions: A2780, 4 days, crystal violet, read-out: Inhibition of A2780 cell proliferation IC50
Protocol: (§4) After 24 hours, the cells of one plate (zero-point plate) were stained with crystal violet (see below), while the medium of the other plates was replaced by fresh culture medium (200 μl), to which the test substances were added in various concentrations (0 μM, as well as in the range of 0.001-10 μM; the final concentration of the solvent dimethyl sulfoxide was 0.5%). The cells were incubated for 4 days in the presence of test substances. Cell proliferation was determined by staining the cells with crystal violet: the cells were fixed by adding 20 μl/measuring point of an 11% glutaric aldehyde solution for 15 minutes at room temperature. After three washing cycles of the fixed cells with water, the plates were dried at room temperature. The cells were stained by adding 100 μl/measuring point of a 0.1% crystal violet solution (pH 3.0). After three washing cycles of the stained cells with water, the plates were dried at room temperature. The dye was dissolved by adding 100 μl/measuring point of a 10% acetic acid solution. The extinction was determined by photometry at a wavelength of 595 nm. The change of cell number, in percent, was calculated by normalization of the measured values to the extinction values of the zero-point plate (=0%) and the extinction of the untreated (0 μm) cells (=100%).

[5] = In vitro metabolic stability in rat hepatocytes (Method 5); type: in vitro ADME, Han Wistar rat; conditions: 1 μM test compound
Protocol: 5. Investigation of In Vitro Metabolic Stability in Rat Hepatocytes
Hepatocytes from Han Wistar rats were isolated via a 2-step perfusion method. After perfusion, the liver was carefully removed from the rat: the liver capsule was opened and the hepatocytes were gently shaken out into a Petri dish with ice-cold Williams medium E (purchased from Sigma Aldrich Life Science, St Louis, Mo.). The resulting cell suspension was filtered through sterile gaze in 50 ml falcon tubes and centrifuged at 50×g for 3 min at room temperature. The cell pellet was resuspended in 30 ml WME and centrifuged through a Percoll® gradient for 2 times at 100×g. The hepatocytes were washed again with Williams' medium E (WMA) and resuspended in medium containing 5% Fetal calf serum (FCS, purchased from Invitrogen, Auckland, NZ). Cell viability was determined by trypan blue exclusion.
For the metabolic stability assay liver cells were distributed in WME containing 5% FCS to glass vials at a density of 1.0×10^6 vital cells/ml. The test compound was added to a final concentration of 1 μM. During incubation, the hepatocyte suspensions were continuously shaken and aliquots were taken at 2, 8, 16, 30, 45 and 90 min, to which equal volumes of cold acetonitrile were immediately added. Samples were frozen at −20° C. over night, after subsequently centrifuged for 15 minutes at 3000 rpm and the supernatant was analyzed with an Agilent 1200 HPLC-system with LCMS/MS detection.
The half-life of a test compound was determined from the concentration-time plot. From the half-life the intrinsic clearances were calculated. Together with the additional parameters liver blood flow, amount of liver cells in vivo and in vitro.

[6] = system: HeLa, human cervical tumour cells; test: Proliferation assay, HeLa (Method 3); type: cell-based; conditions: 4 days, crystal violet, read-out: Inhibition of HeLa cell proliferation IC50
Protocol: as §4

Row | SMILES | IC50 [1] [nM] | IC50 [2] [nM] | IC50 [3] [nM] | Selectivity CDK9/CDK2 [3] | IC50 ([4]; Homo sapiens, A2780, 96 h) [nM] | maximal calculated oral bioavailability (Fmax) based on stability data in rat Hepatocytes [5] [%] | IC50 ([6]; Homo sapiens, 96 h) [nM] | IC50 [4] [nM] | IC50 [6] [nM]
1 | CS(=N)(=O)Cc1cccc(Nc2ncc(F)c(-c3ccc(F)cc3F)n2)c1 (racemic) [Example 9, (rac)-4-(2,4-Difluorophenyl)-5-fluoro-N-{3-[(S-methylsulfonimidoyl)methyl]phenyl}pyrimidin-2-amine] | 2710 | 1100 | 42 | 25 | – | – | – | – | –
2 | CS(=O)(Cc1cc(Cl)cc(Nc2ncc(F)c(-c3ccc(F)cc3F)n2)c1)=NC#N (racemic) [Example 14, (rac)-[(3-Chloro-5-{[4-(2,4-difluorophenyl)-5-fluoropyrimidin-2-yl]amino}benzyl)(methyl)oxido-λ^6-sulfanylidene]cyanamide] | – | 530 | – | – | 540 | 75 | 1020 | – | –
3 | Cc1cc(CS(C)(=N)=O)cc(Nc2ncc(F)c(-c3ccc(F)cc3F)n2)c1 (racemic) [Example 17, (rac)-4-(2,4-Difluorophenyl)-5-fluoro-N-{3-methyl-5-[(S-methylsulfonimidoyl)methyl]phenyl}pyrimidin-2-amine] | 470 | 480 | 26 | 19 | 180 | – | 1360 | – | –
4 | COCCS(=O)(Cc1cc(Nc2ncc(F)c(-c3ccc(F)cc3F)n2)cc(C(F)(F)F)c1)=NC#N (racemic) [Example 22, (rac)-{[3-{[4-(2,4-Difluorophenyl)-5-fluoropyrimidin-2-yl]amino}-5-(trifluoromethyl)benzyl](2-methoxyethyl)oxido-λ^6-sulfanylidene}cyanamide] | 19 | 1200 | 7 | 183 | – | – | 900 | – | –

The next lines start with the values.

Row | IC50 [1] [nM] | IC50 [2] [nM] | IC50 [3] [nM] | Selectivity CDK9/CDK2 [3] | IC50 ([4]; Homo sapiens, A2780, 96 h) [nM] | maximal calculated oral bioavailability (Fmax) based on stability data in rat Hepatocytes [5] [%] | IC50 ([6]; Homo sapiens, 96 h) [nM] | IC50 [4] [nM] | IC50 [6] [nM] | SMILES
5 | 417 | 3200 | 85 | 38 | – | – | 2210 | – | – | N=S(=O)(CCN)Cc1cc(Nc2ncc(F)c(-c3ccc(F)cc3F)n2)cc(C(F)(F)F)c1 (racemic) [Example 25, (rac)-N-[3-{[S-(2-Aminoethyl)sulfonimidoyl]methyl}-5-(trifluoromethyl)phenyl]-4-(2,4-difluorophenyl)-5-fluoropyrimidin-2-amine trifluoroacetate]
6 | 199 | 670 | 10 | 66 | – | 82 | – | 320 | 910 | CS(=O)(Cc1cc(Nc2ncc(F)c(-c3ccc(F)cc3F)n2)cc(C(F)(F)F)c1)=NC(N)=O (single isomer, unassigned) [Example 24, 1-{[3-{[4-(2,4-Difluorophenyl)-5-fluoropyrimidin-2-yl]amino}-5-(trifluoromethyl)benzyl](methyl)oxido-λ^6-sulfanylidene}urea]
7 | 276 | 1100 | – | – | – | – | – | – | – | N=S(=O)(CCN)Cc1cc(Nc2ncc(F)c(-c3ccc(F)cc3F)n2)cc(C(F)(F)F)c1 (single isomer, unassigned) [Example 27, N-[3-{[S-(2-Aminoethyl)sulfonimidoyl]methyl}-5-(trifluoromethyl)phenyl]-4-(2,4-difluorophenyl)-5-fluoropyrimidin-2-amine]
8 | 6310 | 830 | 36 | 23 | – | – | 1080 | – | – | Cc1cc(CS(C)(=N)=O)cc(Nc2ncc(F)c(-c3ccc(F)cc3F)n2)c1 (single isomer, unassigned) [Example 37, 4-(2,4-Difluorophenyl)-5-fluoro-N-{3-methyl-5-[(S-methylsulfonimidoyl)methyl]-phenyl}pyrimidin-2-amine]
9 | 6490 | 720 | 19 | 38 | – | – | – | – | 649 | Cc1cc(CS(C)(=N)=O)cc(Nc2ncc(F)c(-c3ccc(F)cc3F)n2)c1 (single isomer, unassigned) [Example 38, 4-(2,4-Difluorophenyl)-5-fluoro-N-{3-methyl-5-[(S-methylsulfonimidoyl)methyl]-phenyl}pyrimidin-2-amine]
